Laboratory results as given in US20230413822A1, “ORAL CANINE FEED AND METHODS FOR C[…] INFESTATIONS IN A CANINE” (In the Bowl Animal Health, Inc., priority 2021, published 2023).
Several values for one entry are separate records, joined by “and”; a condition that tells them apart may be missing. Equal entries are not always repeated.

Columns and labels:
[1] = Plasma concentration of mivorilaner in dogs given an oral liquid formulation daily (Example 1); assay type: in vivo; conditions: for Mivorilaner Concentration, Average: average of 6 canines, days 0-29; for Mivorilaner Concentration: individual canines, days 0-29, 0.75 mg/kg/day
Description: Methods: A pool of 14 dogs are to be preliminarily infested with ˜100 unfed adult C. felis in order to produce dogs that can suitably sustain a reliable infestation rate, defined as approximately 50% fleas being live at the end of a 48-hour period. The 12 dogs with the highest live flea counts are to be selected for inclusion in the study. The dogs are to be divided into a control group and a treatment group.
The dogs are to be housed individually during the study period and are to be fed a commercial dry dog food ration with ad libitum access to water.
Each dog in the treatment group is to receive by mouth a liquid formulation of isoxazoline. The dosage of 0.75 mg/kg is to be administered to the dogs on each of days 0-29.
Dogs in the control group are not to receive isoxazoline or any other tick control treatment. Each dog in the treatment group is to be offered its daily ration (dry food) and the individual doses of liquid formulation are to be administered after the individual dog has eaten at least 25% of its total daily ration. After receiving the dose of isoxazoline, the dogs are to be allowed to continue eating. This mimics incorporating the isoxazoline in feed. Each dog in the treatment group and the control group is to be experimentally infested with 50 adult ticks on test days 5, 12, 19, 28 and 35. Comb counts for live and moribund attached ticks are to be conducted on days 7, 14, 21, 30 and 37.

[2] = Plasma concentration of mivorilaner in dogs fed medicated daily feed (Example 6); assay type: in vivo; set-up: unit not given here
Description: Methods: A pool of dogs are to be preliminarily infested with ˜50 unfed adult R. sanguineus ticks in order to produce dogs that can suitably sustain a reliable infestation rate, defined as approximately 25% of attached ticks being live at the end of a 72-hour period. The 24 dogs with the highest live attached tick counts are to be selected for inclusion in the study. The 18 dogs with the highest live attached tick counts are to be randomly assigned to one of a control group and 2 treatment groups. The 6 dogs with the next highest live attached tick counts are to be assigned to a third treatment group.
The dogs are to be housed individually during the study period and are to have ad libitum access to water.
Each dog in a treatment group (test groups 2-4) is to receive a medicated daily feed from study days 0-49. The medicated daily feed is to be offered to the dogs for 1 hour on each of days 0-49 according to test groups listed in TABLE 7.
Sample results of the average plasma concentration of isoxazoline in a canine's blood at different dosage levels are shown in TABLE 8 and FIG. 9 for mivorilaner.

O=C(CNC(=O)c1sc(C2=NO[C@@](c3cc(Cl)c(F)c(Cl)c3)(C(F)(F)F)C2)c2c1CCC2)NCC(F)F [Mivorilaner, 3-[(5S)-5-(3,5-dichloro-4-fluorophenyl)-5-(trifluoromethyl)-4,5-dihydroisoxazol-3-yl]-N-[2-[(2,2-difluoroethyl)amino]-2-oxoethyl]-5,6-dihydro-4H-cyclopenta[c]thiophene-1-carboxamide]
Mivorilaner Concentration, Average ([1]; Day 3, 0.75 mg/kg/day oral): 674 ng/mL
Mivorilaner Concentration, Average ([1]; Day 7, 0.75 mg/kg/day oral): 1449 ng/mL
Mivorilaner Concentration, Average ([1]; Day 14, 0.75 mg/kg/day oral): 2105 ng/mL
Mivorilaner Concentration, Average ([1]; Day 21, 0.75 mg/kg/day oral): 2725 ng/mL
Mivorilaner Concentration, Average ([1]; Day 30, 0.75 mg/kg/day oral): 2628 ng/mL
Mivorilaner Concentration, Average ([1]; Day 37, 0.75 mg/kg/day oral): 2017 ng/mL
Mivorilaner Concentration ([1]; Day 3, 0.75 mg/kg/day oral): 556 ng/mL and 648 ng/mL and 579 ng/mL and 660 ng/mL
Mivorilaner Concentration ([1]; Day 7, 0.75 mg/kg/day oral): 1330 ng/mL and 1620 ng/mL and 994 ng/mL and 1470 ng/mL
Mivorilaner Concentration ([1]; Day 14, 0.75 mg/kg/day oral): 1990 ng/mL and 2530 ng/mL and 1560 ng/mL and 2120 ng/mL
Mivorilaner Concentration ([1]; Day 21, 0.75 mg/kg/day oral): 2750 ng/mL and 2820 ng/mL and 2450 ng/mL and 2720 ng/mL
Mivorilaner Concentration ([1]; Day 30, 0.75 mg/kg/day oral): 2570 ng/mL and 2890 ng/mL and 2320 ng/mL and 2600 ng/mL
Mivorilaner Concentration ([1]; Day 37, 0.75 mg/kg/day oral): 2070 ng/mL and 2410 ng/mL and 1880 ng/mL and 2010 ng/mL
average plasma concentration of isoxazoline in a canine's blood ([2]; Group 2-106 mg/kg feed (anticipated 1 mg/kg daily), Time 1 hr): 49.98
average plasma concentration of isoxazoline in a canine's blood ([2]; Group 2-106 mg/kg feed (anticipated 1 mg/kg daily), Time 3 hr): 292.00
average plasma concentration of isoxazoline in a canine's blood ([2]; Group 2-106 mg/kg feed (anticipated 1 mg/kg daily), Time 6 hr): 539.00
average plasma concentration of isoxazoline in a canine's blood ([2]; Group 2-106 mg/kg feed (anticipated 1 mg/kg daily), Time 10 hr): 505.40
average plasma concentration of isoxazoline in a canine's blood ([2]; Group 2-106 mg/kg feed (anticipated 1 mg/kg daily), Time 24 hr): 458.60
average plasma concentration of isoxazoline in a canine's blood ([2]; Group 2-106 mg/kg feed (anticipated 1 mg/kg daily), Time 48 hr): 771.83
average plasma concentration of isoxazoline in a canine's blood ([2]; Group 2-106 mg/kg feed (anticipated 1 mg/kg daily), Time 96 hr): 1570.50
average plasma concentration of isoxazoline in a canine's blood ([2]; Group 2-106 mg/kg feed (anticipated 1 mg/kg daily), Time 168 hr): 2156.67
average plasma concentration of isoxazoline in a canine's blood ([2]; Group 2-106 mg/kg feed (anticipated 1 mg/kg daily), Time 240 hr): 3003.33
average plasma concentration of isoxazoline in a canine's blood ([2]; Group 2-106 mg/kg feed (anticipated 1 mg/kg daily), Time 336 hr): 3290.00
average plasma concentration of isoxazoline in a canine's blood ([2]; Group 3-106 mg/kg feed (anticipated 1 mg/kg daily), Time 1 hr): 40.41
average plasma concentration of isoxazoline in a canine's blood ([2]; Group 3-106 mg/kg feed (anticipated 1 mg/kg daily), Time 3 hr): 264.83
average plasma concentration of isoxazoline in a canine's blood ([2]; Group 3-106 mg/kg feed (anticipated 1 mg/kg daily), Time 6 hr): 467.50
average plasma concentration of isoxazoline in a canine's blood ([2]; Group 3-106 mg/kg feed (anticipated 1 mg/kg daily), Time 10 hr): 419.17
average plasma concentration of isoxazoline in a canine's blood ([2]; Group 3-106 mg/kg feed (anticipated 1 mg/kg daily), Time 24 hr): 435.17
average plasma concentration of isoxazoline in a canine's blood ([2]; Group 3-106 mg/kg feed (anticipated 1 mg/kg daily), Time 48 hr): 781.83
average plasma concentration of isoxazoline in a canine's blood ([2]; Group 3-106 mg/kg feed (anticipated 1 mg/kg daily), Time 96 hr): 1596.67
average plasma concentration of isoxazoline in a canine's blood ([2]; Group 3-106 mg/kg feed (anticipated 1 mg/kg daily), Time 168 hr): 2406.67
average plasma concentration of isoxazoline in a canine's blood ([2]; Group 3-106 mg/kg feed (anticipated 1 mg/kg daily), Time 240 hr): 3026.67
average plasma concentration of isoxazoline in a canine's blood ([2]; Group 3-106 mg/kg feed (anticipated 1 mg/kg daily), Time 336 hr): 3516.67
average plasma concentration of isoxazoline in a canine's blood ([2]; Group 4-318 mg/kg feed (anticipated 3 mg/kg daily), Time 1 hr): 143.75
average plasma concentration of isoxazoline in a canine's blood ([2]; Group 4-318 mg/kg feed (anticipated 3 mg/kg daily), Time 3 hr): 846.50
average plasma concentration of isoxazoline in a canine's blood ([2]; Group 4-318 mg/kg feed (anticipated 3 mg/kg daily), Time 6 hr): 1265.67
average plasma concentration of isoxazoline in a canine's blood ([2]; Group 4-318 mg/kg feed (anticipated 3 mg/kg daily), Time 10 hr): 1198.17
average plasma concentration of isoxazoline in a canine's blood ([2]; Group 4-318 mg/kg feed (anticipated 3 mg/kg daily), Time 24 hr): 1021.17
average plasma concentration of isoxazoline in a canine's blood ([2]; Group 4-318 mg/kg feed (anticipated 3 mg/kg daily), Time 48 hr): 2011.67
average plasma concentration of isoxazoline in a canine's blood ([2]; Group 4-318 mg/kg feed (anticipated 3 mg/kg daily), Time 96 hr): 3928.33
average plasma concentration of isoxazoline in a canine's blood ([2]; Group 4-318 mg/kg feed (anticipated 3 mg/kg daily), Time 168 hr): 6461.67
average plasma concentration of isoxazoline in a canine's blood ([2]; Group 4-318 mg/kg feed (anticipated 3 mg/kg daily), Time 240 hr): 8696.67
